From patent US4238472A, “Radioimmunoassay for chlorinated dibenzo-p-dioxins” (priority 1978, dated 1980)

Legend:
antiserum F-12 = assay: Specificity / cross reactivity of the radioimmunoassay, antiserum F-12; assay type: binding, rabbit; conditions: for Percentage Reactivity (inhibition of 125I binding relative to inhibition by 5 ng of 2,3,7,8-TCDD): "Cutscum"
Excerpt: (§1) Since TCDD itself has no chemically reactive functional groups, a derivative was synthesized that retained most of the structural features of TCDD but with the addition of a reactive site. This derivative was coupled to an immunogenic protein carrier, such as bovine serum albumin, rabbit serum albumin, etc., so that animals would respond to it by producing an antiserum containing antibodies. A second compound was synthesized, still structurally similar to TCDD so that it would bind to the antibodies, but capable of being labeled with ^125 I for detectability at the picogram level. An amount of antiserum capable of binding about 20 pg of ^125 I-labeled dioxin derivative (hapten) is preincubated with the detergent emulsion of the sample extract (possibly containing TCDD). Then the mixture is incubated with the ^125 I-labeled derivative long enough for equilibrium binding to occur and form the hapten-antibody complex. A second antibody, namely, goat antibodies against rabbit gamma-globulin (i.e., goat anti-rabbit γ-globulin) are then added to precipitate the antibody ^125 I-labeled dioxin complex, and the amount of ^125 I in the precipitate is determined. The extent to which preincubation with the test material inhibits or decreases the amount of ^125 I precipitated relative to the amount precipitated in the absence of test material is a measure of the amount of chlorodibenzodioxin in the test sample.
(§2) Radioimmunoassay of small molecules requires some means of separating free hapten from antibody-bound hapten. The procedure used in the present invention, chosen because of its compatibility with detergent-solubilized hapten, involved precipitating the antibody-hapten complex with a second antibody, namely, goat antibodies against rabbit gamma-globulin. In this assay chlorodibenzodioxin from the environmental sample completes with the ^125 I-labeled hapten for binding to the antibody. Thus, the decrease in precipitation of radioactivity is a measure of the amount of (unlabeled) hapten in the test sample.
(§3) The assay buffer (hereinafter referred to as "PBS") contained, per liter, 20 mmol of potassium phosphate, 140 mmol of NaCl, and 200 mg of sodium azide. The pH was adjusted to 7.3 with NaOH. Antiserum was diluted with PBS also containing 0.1% bovine gamma globulin and 0.02% rabbit gamma globulin (w/v). Each assay tube from procedure G above received 0.2 ml of PBS, after which the tubes were held in the sonicator for 40 minutes and then cooled to room temperature. Appropriately diluted antiserum or, as control, antiserum diluant was added (0.2 ml) and, after vortex-mixing, the tubes were incubated for 40 minutes at 37°. 14000 disintegrations per minute (hereafter referred to as "DPM") or 7000 counts per minute (hereinafter referred to as "CPM", which equals DPM×counting efficiency) of [^125 I]-iodovaleramide derivative of trichlorodibenzo-p-dioxin in PBS containing 1% "Cutscum" were then added to each tube (approximately 10 μl), vortex mixed, and the tubes incubated for 1 hour at 37° followed by an additional 65 hours of incubation at 4°. Each tube next received 1.24 units of goat anti-rabbit gamma globulin in 0.2 ml of PBS containing 0.05 mM ethylenediamine tetracetic acid (hereinafter referred to as "EDTA"), was vortex mixed, and incubated for 5 hours at 4°. The tubes were centrifuged at 500×g for 20 minutes at 4°. The supernates were poured off and the tubes allowed to drain into Whatman #3 MM paper for 10 minutes. The precipitate or pellets obtained were then radioassayed for ^125 I, with 10 minute count cycles.
(§4) Standard curves were prepared using sequential two-fold dilutions of TCDD or other test compounds in benzene and evaporating the solvent as described above. Both control (blank) and TCDD-spiked tissues were extracted and processed as described above to determine general interference and recoveries. All samples were run in triplicate. […]

antiserum GC-5 = assay: Cross reactivity in chlorinated DBD radioimmunoassay, antiserum GC-5; assay type: binding, rabbit; conditions: for maximum inhibition of binding of 125I-labeled hapten: GC-5 diluted such that 33% of the label was bound in the absence of competitors
Excerpt: as §1, §2, §3, §4

[1] = in vivo; cited from earlier work
[2] = system: anti-chlorinated dibenzodioxin serum (antisera GC-5 and F-12); assay: Double-antibody radioimmunoassay, both antisera (general cross reactivity, interference and sensitivity); assay type: binding, rabbit; conditions: for cross reactivity of the three dichlorodibenzo-p-dioxins: 5 ng level; for activity v concentration curve slope: both antisera
Excerpt: as §1, §2, §3, §4

SMILES | Cross Reactivity, Antiserum F-12: 100 × (inhibition of 125I binding by 4 pmole of test compound)/(inhibition by 4 pmole of 2,3,7,8-TCDD) (antiserum F-12) [%] | Cross Reactivity, Antiserum GC-5: 100 × (inhibition of 125I binding by 4 pmole of test compound)/(inhibition by 4 pmole of 2,3,7,8-TCDD) (antiserum GC-5) [%] | further results
Clc1cc2c(cc1Cl)Oc1c(Cl)c(Cl)c(Cl)c(Cl)c1O2 [1,2,3,4,7,8-Cl6 Dibenzo-p-Dioxin] | 9 | 99 | 
Clc1c(Cl)c(Cl)c2c(c1Cl)Oc1ccccc1O2 [1,2,3,4-Cl4 Dibenzo-p-Dioxin, 1,2,3,4-tetrachloro DBD] | < 1 | 20 | maximum inhibition of binding of 125I-labeled hapten (antiserum GC-5): up to 18%
Clc1cc2c(c(Cl)c1Cl)Oc1cc(Cl)c(Cl)c(Cl)c1O2 [1,2,3,6,7,8-Cl6 Dibenzo-p-Dioxin] | 9 | 99 | toxicity relative to TCDD [1]: toxicities comparable to that of TCDD
Clc1cc2c(c(Cl)c1Cl)Oc1c(cc(Cl)c(Cl)c1Cl)O2 [1,2,3,7,8,9-hexachlorodibenzo-p-dioxin] |  |  | effective competition in the assay (predicted) (antiserum F-12; if available for testing): effective competitor; toxicity relative to TCDD [1]: toxicities comparable to that of TCDD
Clc1cc2c(cc1Cl)Oc1c(Cl)c(Cl)cc(Cl)c1O2 [1,2,4,7,8-Cl5 Dibenzo-p-Dioxin] | 36 | 76 | 
Clc1cc(Cl)c2oc3cc(Cl)c(Cl)cc3c2c1 [2,3,6,8-Cl4 Dibenzofuran] | 40 | 6 | 
Brc1cc2oc3cc(Br)c(Br)cc3c2cc1Br [2,3,7,8-Br4 Dibenzofuran] | 46 |  | 
Clc1ccc2c(c1)Oc1cc(Cl)c(Cl)cc1O2 [2,3,7-Cl3 Dibenzo-p-Dioxin] | 77 | 73 | 
Clc1ccc2oc3cc(Cl)c(Cl)cc3c2c1 [2,3,8-Cl3 Dibenzofuran] |  | 2 | 
Clc1cc2c(cc1Cl)Oc1ccccc1O2 [2,3-Cl2 Dibenzo-p-Dioxin, 2,3-dichloro DBD] | 16 | 44 | binding by the antibodies in GC-5 (antiserum GC-5): only a portion bind 2,3-dichloro DBD; maximum inhibition of binding of 125I-labeled hapten (antiserum GC-5): 55%; cross reactivity of the three dichlorodibenzo-p-dioxins [2]: very similar in their cross reactivity; activity v concentration curve slope [2]: steepest sloop
Clc1cc(Cl)c(-c2cc(Cl)c(Cl)cc2Cl)cc1Cl [2,4,5,2',4',5'-HCBP] |  |  | Percentage Reactivity (inhibition of 125I binding relative to inhibition by 5 ng of 2,3,7,8-TCDD) (antiserum F-12; highest amount tested 100 ng): 0%
O=C(O)COc1cc(Cl)c(Cl)cc1Cl [2,4,5-T (Commercial), 2,4,5-trichlorophenoxyacetic acid] |  |  | Percentage Reactivity (inhibition of 125I binding relative to inhibition by 5 ng of 2,3,7,8-TCDD) (antiserum F-12; highest amount tested 10 μg): 37%
Clc1cccc(Cl)c1-c1c(Cl)cccc1Cl [2,6,2',6'-TCBP] |  |  | Percentage Reactivity (inhibition of 125I binding relative to inhibition by 5 ng of 2,3,7,8-TCDD) (antiserum F-12; highest amount tested 200 ng): 0%
Clc1ccc2c(c1)Oc1ccc(Cl)cc1O2 [2,7-Cl2 Dibenzo-p-Dioxin] | 20 | 56 | cross reactivity of the three dichlorodibenzo-p-dioxins [2]: very similar in their cross reactivity
O=C1OC2(c3cc(Cl)c(O)cc3Oc3cc(O)c(Cl)cc32)c2ccccc21 [2,7-Dichlorofluorescein] |  |  | Percentage Reactivity (inhibition of 125I binding relative to inhibition by 5 ng of 2,3,7,8-TCDD) (antiserum F-12; highest amount tested 200 ng): 0%
Clc1ccc2c(c1)Oc1cc(Cl)ccc1O2 [2,8-Cl2 Dibenzo-p-Dioxin] | 17 | 52 | cross reactivity of the three dichlorodibenzo-p-dioxins [2]: very similar in their cross reactivity; activity v concentration curve slope [2]: most shallow slope
Clc1ccc2oc3ccc(Cl)cc3c2c1 [2,8-Cl2 Dibenzofuran] |  | 12 | 

SMILES | Cross Reactivity, Antiserum F-12: 100 × (inhibition of 125I binding by 4 pmole of test compound)/(inhibition by 4 pmole of 2,3,7,8-TCDD) (antiserum F-12) [%] | Cross Reactivity, Antiserum GC-5: 100 × (inhibition of 125I binding by 4 pmole of test compound)/(inhibition by 4 pmole of 2,3,7,8-TCDD) (antiserum GC-5) [%] | further results
Clc1ccc(-c2ccc(Cl)c(Cl)c2)cc1Cl [3,4,3',4'-TCBP, 3,4,3'4'-tetrachlorobiphenyl] |  |  | Percentage Reactivity (inhibition of 125I binding relative to inhibition by 5 ng of 2,3,7,8-TCDD) (antiserum F-12; highest amount tested 5 ng): 6%
Clc1ccc(Oc2ccc(Cl)c(Cl)c2)cc1Cl [3,4,3',4'-TCBPE] |  |  | Percentage Reactivity (inhibition of 125I binding relative to inhibition by 5 ng of 2,3,7,8-TCDD) (antiserum F-12; highest amount tested 200 ng): 0.1%
Clc1cc(-c2cc(Cl)c(Cl)c(Cl)c2)cc(Cl)c1Cl [3,4,5,3',4',5'-HCBP] |  |  | Percentage Reactivity (inhibition of 125I binding relative to inhibition by 5 ng of 2,3,7,8-TCDD) (antiserum F-12; highest amount tested 100 ng): 0%
Clc1cc(Cl)cc(-c2cc(Cl)cc(Cl)c2)c1 [3,5,3',5'-TCBP] |  |  | Percentage Reactivity (inhibition of 125I binding relative to inhibition by 5 ng of 2,3,7,8-TCDD) (antiserum F-12; highest amount tested 100 ng): 0%
O=C1c2ccccc2-c2ccccc21 [9-Fluorenone] |  |  | Percentage Reactivity (inhibition of 125I binding relative to inhibition by 5 ng of 2,3,7,8-TCDD) (antiserum F-12; highest amount tested 100 ng): 0%
c1ccc2cc3ccccc3cc2c1 [Anthracene] |  |  | Percentage Reactivity (inhibition of 125I binding relative to inhibition by 5 ng of 2,3,7,8-TCDD) (antiserum F-12; highest amount tested 100 ng): 0%
CCCCCCCC/C=C\CCCCCCCC(=O)O[C@H]1CC[C@@]2(C)C(=CC[C@H]3[C@@H]4CC[C@H]([C@H](C)CCCC(C)C)[C@@]4(C)CC[C@@H]32)C1 [Cholesterol Oleate] |  |  | Percentage Reactivity (inhibition of 125I binding relative to inhibition by 5 ng of 2,3,7,8-TCDD) (antiserum F-12; highest amount tested 100 μg): 0%
ClC(Cl)=C(c1ccc(Cl)cc1)c1ccc(Cl)cc1 [DDE] |  |  | Percentage Reactivity (inhibition of 125I binding relative to inhibition by 5 ng of 2,3,7,8-TCDD) (antiserum F-12; highest amount tested 400 ng): 0%
CCCCC(CC)COC(=O)c1ccccc1C(=O)OCC(CC)CCCC (stereo not drawn) [DEHP, di(2-ethylhexyl) phthalate] |  |  | Percentage Reactivity (inhibition of 125I binding relative to inhibition by 5 ng of 2,3,7,8-TCDD) (antiserum F-12; highest amount tested 100 μg): 0%
Clc1c(Cl)c(Cl)c2c(c1Cl)Oc1c(Cl)c(Cl)c(Cl)c(Cl)c1O2 [Octachloro Dibenzo-p-Dioxin] | 8 | 100 | 
Clc1c(Cl)c(Cl)c2c(oc3c(Cl)c(Cl)c(Cl)c(Cl)c32)c1Cl [Octachloro Dibenzofuran] | 8 | 14 | 
Oc1c(Cl)c(Cl)c(Cl)c(Cl)c1Cl [Pentachlorophenol] |  |  | Percentage Reactivity (inhibition of 125I binding relative to inhibition by 5 ng of 2,3,7,8-TCDD) (antiserum F-12; highest amount tested 10 μg): 0%
CCCCC(CC)COC(=O)c1c(Cl)c(Cl)c(Cl)c(Cl)c1C(=O)OCC(CC)CCCC (stereo not drawn) [Tetrachloro DEHP] |  |  | Percentage Reactivity (inhibition of 125I binding relative to inhibition by 5 ng of 2,3,7,8-TCDD) (antiserum F-12; highest amount tested 200 ng): 0.1%
c1ccc2c(c1)Oc1ccccc1O2 [Unchlorinated Dibenzo-p-Dioxin, Unchlorinated dibenzo-p-dioxin] | < 1 | 4 | cross reactivity in words ([2]; either antiserum): very little cross relativity
c1ccc2c(c1)oc1ccccc12 [Unchlorinated Dibenzofuran] | < 1 | 2.5 | 
CC(=O)Oc1c(C)c(C)c2c(c1C)CCC(C)(CCCC(C)CCCC(C)CCCC(C)C)O2 (stereo not drawn) [α-Tocopherol Acetate] |  |  | Percentage Reactivity (inhibition of 125I binding relative to inhibition by 5 ng of 2,3,7,8-TCDD) (antiserum F-12; highest amount tested 200 ng): 0%
